Patent US7381698B2, “Methods for treatment of acute pancreatitis” (ChiRhoClin, Inc., priority 2003, dated 2008)
Where no end group is shown, it is not given here.

Legend:
[1] = tested on: post-ERCP pancreatitis in patients undergoing ERCP; test: Randomized, double-blind, placebo controlled study in ERCP patients: incidence and severity of post-ERCP pancreatitis; assay type: in vivo, human
From the text: Pancreatitis is the most common medically significant complication following Endoscopic Retrograde Cholangio-Pancreatography ([…]) procedures. The symptoms and pathophysiology of post-ERCP pancreatitis and acute pancreatitis are identical, and patients at risk for postERCP pancreatitis or suffering early signs of the condition provide good data for evaluation of therapies for acute pancreatitis. An evaluation of the clinical efficacy of dosages of secretin to treat or prevent the onset of pancreatitis in patients undergoing ERCP is described below.
A total of 979 ERCP patients were randomized, received study drug and were evaluable for efficacy. The demographic profiles of the patients who were randomized and received treatment with study drug by treatment group are summarized in Table 1.
The primary efficacy variable was the overall incidence of post-ERCP pancreatitis.
The difference in the incidence of post-ERCP pancreatitis between the two treatment groups in favor of the sPS treated patients was highly significant. The p-value of 0.0161 was sufficient to allow the study to be discontinued on the basis of the planned interim analysis of approximately 1,000 evaluable patients. The severity of the cases of post-ERCP pancreatitis, which did occur in each treatment group is depicted in Table 4 below.
The frequency of post-ERCP pancreatitis was evaluated in numerous patient sub-populations defined by the types of procedures performed during the ERCP.

patients undergoing ERCP = test: Return to pre-ERCP activity levels and return to work in ERCP patients; assay type: in vivo, human
From the text: Additional secondary efficacy variables assessed were return to baseline (pre-ERCP levels of activity) and the time in days to return of pre-ERCP activity levels. There was a small difference in the percentage of patients reporting return to baseline activity within the follow-up period (2 to 4 days post-ERCP) favoring the placebo group (p=0.0230) (49.78% vs. 42.09%). Interims of the mean number of days required to achieve pre-ERCP activity levels, was 0.6 (±1.0) for the sPS group and 0.7 (±0.9) for the placebo group. An attempt was made to obtain information on return to work. Relatively few data points were able to be collected, however, because a large percentage of patients were not working pre-ERCP (retired, too ill, etc.) among the 185 patients (95 in the sPS group and 90 in the placebo group) providing relevant responses for this variable, 46.32% of sPS patients and 50.00% of placebo patients reported returning to work within the follow-up period.

[2] = number of cases (% of 44 pancreatitis cases), N = 488/44

synthetic porcine secretin (HSDGTFTSELSRLRDSARLQRLLQGLV; not fully specified; ends and bridges not checked; UniProt P63298 33-59, looked up) [SPS, Study drug; abbreviation not defined]
Post-ERCP Pancreatitis Severity Rating (%): Severe [1, 2]: 1 (2.27) %
Post-ERCP Pancreatitis Severity Rating (%): Unknown [1, 2]: 7 (15.91) %
Post-ERCP Pancreatitis Severity Rating (%): Total ([1]; number of cases (% of 44 pancreatitis cases), N = 488/44, overall p 0.6278): 44 (100.0) %
Post-ERCP Pancreatitis Severity Rating (%): Moderate ([1]; number of cases (% of 44 pancreatitis cases), N = 488/44, p 0.117): 9 (20.45) %
Post-ERCP Pancreatitis Severity Rating (%): Minimal ([1]; number of cases (% of 44 pancreatitis cases), N = 488/44, p 0.289): 13 (29.55) %
Post-ERCP Pancreatitis Severity Rating (%): Mild ([1]; number of cases (% of 44 pancreatitis cases), N = 488/44, p 0.590): 14 (31.82) %
Overall Incidence of Post-ERCP Pancreatitis, No (%) ([1]; number of patients (%), N = 488): 444 (90.98) %
Overall Incidence of Post-ERCP Pancreatitis, Yes (%) ([1]; number of patients (%), N = 488, p 0.0161 vs placebo, Fisher Exact Test): 44 (9.02) %
Incidence of Post-ERCP Pancreatitis, No (%) ([1]; sub-population Cannulation of CBD, N = 361): 334 (92.52) %
Incidence of Post-ERCP Pancreatitis, Yes (%) ([1]; sub-population Cannulation of CBD, N = 361, p 0.0010): 27 (7.48) %
Incidence of Post-ERCP Pancreatitis, No (%) ([1]; sub-population Cannulation of Pancreatic Duct, N = 220): 190 (86.36) %
Incidence of Post-ERCP Pancreatitis, Yes (%) ([1]; sub-population Cannulation of Pancreatic Duct, N = 220, p 0.1237): 30 (13.64) %
Incidence of Post-ERCP Pancreatitis, No (%) ([1]; sub-population Manometry of CBD, N = 19): 15 (78.95) %
Incidence of Post-ERCP Pancreatitis, Yes (%) ([1]; sub-population Manometry of CBD, N = 19, p 0.0819): 4 (21.05) %
Incidence of Post-ERCP Pancreatitis, Yes (%) ([1]; sub-population Manometry of CBD, N = 19, p 0.0819, listed as sPS): 21.05%
Incidence of Post-ERCP Pancreatitis, No (%) ([1]; sub-population Manometry of Pancreatic Duct, N = 11): 6 (54.58) %
Incidence of Post-ERCP Pancreatitis, Yes (%) ([1]; sub-population Manometry of Pancreatic Duct, N = 11, p 0.3665): 5 (45.45) %
Incidence of Post-ERCP Pancreatitis, No (%) ([1]; sub-population Sphincterotomy of CBD, N = 140): 133 (95.00) %
Incidence of Post-ERCP Pancreatitis, Yes (%) ([1]; sub-population Sphincterotomy of CBD, N = 140, p 0.0001): 7 (5.00) %
Incidence of Post-ERCP Pancreatitis, No (%) ([1]; sub-population Sphincterotomy of Pancreatic Duct, N = 26): 14 (57.85) %
Incidence of Post-ERCP Pancreatitis, Yes (%) ([1]; sub-population Sphincterotomy of Pancreatic Duct, N = 26, p 0.1666): 12 (46.15) %
Incidence of Post-ERCP Pancreatitis, No (%) ([1]; sub-population Stent Insertion into CBD, N = 108): 105 (97.22) %
Incidence of Post-ERCP Pancreatitis, Yes (%) ([1]; sub-population Stent Insertion into CBD, N = 108, p 0.0856): 3 (2.78) %
Incidence of Post-ERCP Pancreatitis, Yes (%) ([1]; sub-population Stent Insertion into CBD, N = 108, p 0.0856, listed as sPS): 2.78%
Incidence of Post-ERCP Pancreatitis, No (%) ([1]; sub-population Stent Insertion into Pancreatic Duct, N = 23): 18 (78.26) %
Incidence of Post-ERCP Pancreatitis, Yes (%) ([1]; sub-population Stent Insertion into Pancreatic Duct, N = 23, p 1.0000): 5 (21.74) %
Incidence of Post-ERCP Pancreatitis, Yes (%) ([1]; sub-population Stent Insertion into Pancreatic Duct, N = 23, p 1.0000, listed as sPS): 21.7%
Incidence of Post-ERCP Pancreatitis, No (%) ([1]; sub-population Stent Removal from CBD, N = 58): 57 (98.28) %
Incidence of Post-ERCP Pancreatitis, Yes (%) ([1]; sub-population Stent Removal from CBD, N = 58, p 0.6185): 1 (1.72) %
Incidence of Post-ERCP Pancreatitis, No (%) ([1]; sub-population Stent Removal from Pancreatic Duct, N = 17): 15 (88.24) %
Incidence of Post-ERCP Pancreatitis, Yes (%) ([1]; sub-population Stent Removal from Pancreatic Duct, N = 17, p 1.0000): 2 (11.76) %
Incidence of Post-ERCP Pancreatitis, No (%) ([1]; sub-population Stone Extraction (Balloon), N = 55): 51 (92.73) %
Incidence of Post-ERCP Pancreatitis, Yes (%) ([1]; sub-population Stone Extraction (Balloon), N = 55, p 1.0000): 4 (7.27) %
Incidence of Post-ERCP Pancreatitis, No (%) ([1]; sub-population Stone Extraction (Basket), N = 35): 34 (97.14) %
Incidence of Post-ERCP Pancreatitis, Yes (%) ([1]; sub-population Stone Extraction (Basket), N = 35, p 0.2298): 1 (2.86) %
mean number of days required to achieve pre-ERCP activity levels (patients undergoing ERCP; mean (±SD)): 0.6 (±1.0) days
patients reporting returning to work (patients undergoing ERCP; within the follow-up period, 95 patients in the sPS group, not significant): 46.32%
